From patent US20020173538A1, “Method for sensitizing cancer cells to cancer therapies with a mevalonate-reducing compound” (priority 2000, published 2002)
Like-named read-outs stand apart in the source and are kept apart here. Marks after values point to notes of the source that are not given here.

Tests used:
[1] = MTT cell viability assay, Hep G2 cells (serum-free DMEM); settings: human, Hep G2 cells, Cell viability
Excerpt: (§1) Human hepatoma cell lines Hep G2 and Hep 3 were chosen as the in vitro models of hepatocytes and hepatoma, respectively.

Hep G2 cells = assay: as above; settings: for IC50: Homo sapiens; for Cell viability (cell number): LOV 50 μM 48 hr
Excerpt: as §1

Hep 3B cells = assay: MTT cell viability assay, Hep 3B cells (serum-free DMEM)
Excerpt: as §1

[2] = lovastatin 50 μM 48 hr, then no taxol 48 hr
[3] = LOV 10 μM 48 hr, then LOV 10 μM without MVA another 24 hr
[4] = LOV 10 μM 48 hr, then LOV 10 μM without MVA another 48 hr
[5] = LOV 10 μM 48 hr, then LOV 10 μM without MVA another 72 hr

In the case of `CC[C@H](C)C(=O)O[C@H]1C[C@@H](C)C=C2C=C[C@H](C)[C@H](CC[C@@H]3C[C@@H](O)CC(=O)O3)[C@H]21` [Lovastatin, lovastatin], the viability at 96 h, 10 μM ([1]; lovastatin 10 μM alone, 96 hr, Table 25) is reported as 50.3 ± 4.9%, the viability at 72 h, 10 μM ([1]; lovastatin 10 μM, 72 hr) is reported as 78.7 ± 5.3% and the viability at 72 h, 20 μM ([1]; lovastatin 20 μM, 72 hr) is reported as 75.3 ± 4.2%. It also gave a viability at 48 h, 50 μM [1, 2] of 14.6 ± 1.3%, a viability at 72 h, 50 μM ([1]; lovastatin 50 μM, 72 hr) of 58.2 ± 4.2% and an IC50 (Hep G2 cells; HepG2, 48 h, read-out: IC50 (cell viability), 48 hr, Table 3) of 97.2 ± 2.1 µM. The IC50 (Hep G2 cells; HepG2, 48 h, read-out: IC50 (cell viability), 48 hr, Table 4) was 97.2 µM, the IC50 (Hep G2 cells; HepG2, 48 h, read-out: IC50 of lovastatin (cell viability), 48 hr treatment) was 97.2 ± 2.1 µM and the IC50 (Hep G2 cells; HepG2, 72 h, read-out: IC50 (cell viability), 72 hr, Table 3) was 63.6 ± 3.7 µM. For the same compound, the IC50 (Hep G2 cells; HepG2, 72 h, read-out: IC50 (cell viability), 72 hr, Table 4) was 62.3 µM, the IC50 (Hep G2 cells; HepG2, 72 h, read-out: IC50 of lovastatin (cell viability), 72 hr treatment) was 62.3 ± 3.7 µM and the IC50 (Hep G2 cells; HepG2, 96 h, read-out: IC50 (cell viability), 96 hr) was 13.1 µM. The IC50 (Hep G2 cells; HepG2, 120 h, read-out: IC50 (cell viability), 120 hr) was 6.2 µM, the “Cell viability (cell number)” value (Hep G2 cells; then LOV 50 μM without MVA another 24 hr) was 10.6 ± 0.7^b 1 × 10^3 cells and the “Cell viability (cell number)” value (Hep G2 cells; then LOV 50 μM without MVA another 48 hr) was 3.6 ± 1.6^b 1 × 10^3 cells. For the same compound, the “Cell viability (cell number)” value (Hep G2 cells; then LOV 50 μM without MVA another 72 hr) was 1.7 ± 0.5^b 1 × 10^3 cells, the IC50 (Hep 3B cells; Homo sapiens, Hep3B, 48 h, read-out: IC50 (cell viability), 48 hr, Table 3) was 62.3 ± 7.1 µM and the IC50 (Hep 3B cells; Homo sapiens, Hep3B, 48 h, read-out: IC50 (cell viability), 48 hr, Table 4) was 63.6 µM. It also gave an IC50 (Hep 3B cells; Homo sapiens, Hep3B, 48 h, read-out: IC50 of lovastatin (cell viability), 48 hr treatment) of 63.6 ± 7.1 µM, a viability at 1 µM (Hep 3B cells; Homo sapiens, Hep3B, 72 h, read-out: Cell viability, lovastatin 1 μM, 72 hr) of 84.1 ± 4.5% and a viability at 2 µM (Hep 3B cells; Homo sapiens, Hep3B, 72 h, read-out: Cell viability, lovastatin 2 μM, 72 hr) of 71.4 ± 3.8%. It also gave a viability at 5 µM (Hep 3B cells; Homo sapiens, Hep3B, 72 h, read-out: Cell viability, lovastatin 5 μM alone, 72 hr, Table 23) of 60.7 ± 2.4%, a viability at 5 µM (Hep 3B cells; Homo sapiens, Hep3B, 72 h, read-out: Cell viability, lovastatin 5 μM, 72 hr) of 58.8 ± 1.8% and a viability at 10 µM (Hep 3B cells; Homo sapiens, Hep3B, 72 h, read-out: Cell viability, lovastatin 10 μM alone, 72 hr, Table 23) of 48.5 ± 2.5%. The viability at 10 µM (Hep 3B cells; Homo sapiens, Hep3B, 72 h, read-out: Cell viability, lovastatin 10 μM, 72 hr) was 41.4 ± 1.5%, the viability at 50 µM (Hep 3B cells; Homo sapiens, Hep3B, 72 h, read-out: Cell viability, lovastatin 50 μM, 72 hr) was 15.2 ± 1.8% and the IC50 (Hep 3B cells; Homo sapiens, Hep3B, 72 h, read-out: IC50 (cell viability), 72 hr, Table 3) was 6.8 ± 1.3 µM. It also gave an IC50 (Hep 3B cells; Homo sapiens, Hep3B, 72 h, read-out: IC50 (cell viability), 72 hr, Table 4) of 6.8 µM, an IC50 (Hep 3B cells; Homo sapiens, Hep3B, 72 h, read-out: IC50 of lovastatin (cell viability), 72 hr treatment) of 6.8 ± 1.3 µM and a viability at 10 µM (Hep 3B cells; Homo sapiens, Hep3B, 96 h, read-out: Cell viability, lovastatin 10 μM alone, 96 hr, Table 10) of 29.8 ± 1.2%. For the same compound, the viability at 10 µM (Hep 3B cells; Homo sapiens, Hep3B, 96 h, read-out: Cell viability, lovastatin 10 μM alone, 96 hr, Table 21) was 27.5 ± 8.2%, the viability at 10 µM (Hep 3B cells; Homo sapiens, Hep3B, 96 h, read-out: Cell viability, lovastatin 10 μM alone, 96 hr, Table 25) was 28.6 ± 1.7% and the IC50 (Hep 3B cells; Homo sapiens, Hep3B, 96 h, read-out: IC50 (cell viability), 96 hr) was 5.9 µM. For the same compound, the IC50 (Hep 3B cells; Homo sapiens, Hep3B, 120 h, read-out: IC50 (cell viability), 120 hr) was 1.3 µM, the Cell viability (Hep 3B cells; LOV 1 μM, 48 hr) was 90.2 ± 0.3^b % of control and the Cell viability (Hep 3B cells; LOV 2 μM, 48 hr) was 86.1 ± 2.0^bc % of control. For the same compound, the Cell viability (Hep 3B cells; LOV 5 μM, 48 hr) was 78.6 ± 4.7^cd % of control, the Cell viability (Hep 3B cells; LOV 5 μM, 48 hr, Table 4) was 78.6 ± 4.7^b % of control and the Cell viability (Hep 3B cells; LOV 5 μM, 96 hr) was 56.4 ± 5.1^c % of control. The Cell viability (Hep 3B cells; LOV 5 μM, 120 hr) was 20.3 ± 3.6^d % of control, the Cell viability (Hep 3B cells; [3]) was 52.6 ± 2.6^b % of control and the “Cell viability (cell number)” value (Hep 3B cells; [3]) was 5.3 ± 0.1^b 1 × 10^3 cells. For the same compound, the Cell viability (Hep 3B cells; [4]) was 7.3 ± 0.5^b % of control, the “Cell viability (cell number)” value (Hep 3B cells; [4]) was 1.0 ± 0.1^b 1 × 10^3 cells and the Cell viability (Hep 3B cells; [5]) was 3.2 ± 1.8^b % of control. The “Cell viability (cell number)” value (Hep 3B cells; [5]) was 0.6 ± 0.5^b 1 × 10^3 cells, the Cell viability (Hep 3B cells; LOV 10 μM, 48 hr) was 66.4 ± 0.8^de % of control and the Cell viability (Hep 3B cells; LOV 10 μM, 48 hr, Table 4) was 66.4 ± 0.8^b % of control. For the same compound, the Cell viability (Hep 3B cells; LOV 10 μM, 96 hr) was 31.7 ± 2.7^d % of control, the Cell viability (Hep 3B cells; LOV 10 μM, 120 hr) was 6.9 ± 1.3^e % of control and the Cell viability (Hep 3B cells; LOV 20 μM, 48 hr) was 55.7 ± 6.6^ef % of control. For the same compound, the Cell viability (Hep 3B cells; LOV 50 μM, 48 hr) was 52.2 ± 1.9^f % of control, the Cell viability (Hep 3B cells; lovastatin 5 μM 48 hr, then no CAPE 48 hr) was 64.3 ± 5.5 % of control and the Cell viability (Hep 3B cells; lovastatin 5 μM 48 hr, then no taxol 48 hr) was 49.8 ± 7.8 % of control. For the same compound, the Cell viability (Hep 3B cells; lovastatin 5 μM 72 hr, then no taxol 48 hr) was 27.7 ± 2.0 % of control, the Cell viability (Hep 3B cells; lovastatin 5 μM 72 hr, then no taxol 72 hr) was 13.0 ± 3.0 % of control and the Cell viability (Hep 3B cells; lovastatin 10 μM 48 hr, then no CAO 48 hr) was 47.9 ± 6.1^de % of control. The Cell viability (Hep 3B cells; lovastatin 10 μM 48 hr, then no CAPE 48 hr) was 59.3 ± 4.5^d % of control, the Cell viability (Hep 3B cells; lovastatin 10 μM 48 hr, then no GL-M1 48 hr) was 53.6 ± 8.2^c % of control and the Cell viability (Hep 3B cells; lovastatin 10 μM 48 hr, then no taxol 48 hr) was 45.7 ± 3.1^d % of control. The Cell viability (Hep 3B cells; lovastatin 10 μM 72 hr, then no taxol 48 hr) was 20.4 ± 7.0^c % of control, the Cell viability (Hep 3B cells; lovastatin 10 μM 72 hr, then no taxol 72 hr) was 14.7 ± 3.6^d % of control and the Cell viability (Hep 3B cells; [2]) was 2.9 ± 4.1 % of control.
